Laboratory results taken from patent USRE37886E1, “1-(1,2-Disubstituted piperidinyl)-4-substituted piperazine derivatives” (Janssen Pharmaceuticals, N.V., priority 1995, dated 2002).

Tests used:
[1] = tested on: substance-P induced relaxation of the pig coronary arteries; experiment: Antagonism of substance-P induced relaxation of the pig coronary arteries; type: cell-based; details: concentration at which 50% of the response to 10^−9 M substance P was inhibited; 30 minutes incubation; prostaglandin F2a precontracted segments
Source text: (§1) The compounds of the present invention are potent inhibitors of neurokinin-mediated effects, in particular those mediated via the NK1 receptor, and may therefore be described as tachykinin antagonists, especially as substance P antagonists, as indicated in vitro by the antagonism of substance P induced relaxation of pig coronary arteries which is described hereinafter. The binding affinity of the present compounds for the human, guinea-pig and gerbil neurokinin receptors may be determined in vitro in a receptor binding test using ^3H-substance-P as radioligand. The subject compounds also show substance-P antagonistic activity in vivo as may be evidenced by, for instance, the antagonism of substance P-induced plasma extravasation in guinea-pigs, or the antagonism of drug-induced emesis in ferrets (Watson et al., Br. J. Pharmacol. 115, 84-94, 1995).
Antagonism of substance-P induced relaxation of the pig coronary arteries
Segments of coronary artieries taken from pigs (killed by injection of an overdose of sodium pentobarbital) were inverted and mounted for recordign of isometric tension in organ baths (volume 20 ml) with the endothelium at the outside. The preparations were bathed in Krebs-Henseleit solution. The solution was kept at 37° C. and gassed with a mixture of O2/CO2 (95/5). After stabilisation of the preparations, prostaglandin F2a (10^−5 M) was administered to induce a contraction. This was repeated until contractivle responses became stable. Then prostaglandin F2a was again administered and substance P(3×10^−10 M and 10^−9 M cumulatively) was added. Substance P induced endothelium dependent relaxations. After washing away the agonists, a known concentratin of a compound of formula (I) was added. After an incubation period of 30 minutes, prostaglandin F2a ([…]) and the same concentrations of sbustance P as described above were again administered in the presence of the compound to be tested. Relaxations caused by substance P were expressed as relaxations under control conditions, and percent inhibition of the response to […] substance P was taken as a measure of the antagonistic activity of the compound to be tested. Table 6 lists the IC50 values (concentration at which 50% of the response to […] substance P was inhibited by the test compound) for the tested compounds.

[2] = tested on: substance P induced plasma extravasation; experiment: Antagonism of substance P induced plasma extravasation in guinea-pigs; type: in vivo; details: lowest active dose, female guinea-pigs; for LAD nose: compound 1 hour prior to substance P (2 mg/kg, femoral artery), blue colouring of nose 10 minutes after challenge; for LAD conjunctiva / LAD forepaws / LAD trachea / LAD urinary bladder: compound 1 hour prior to substance P; for LAD conjunctiva: blue colouring of conjunctiva 10 minutes after challenge; for LAD forepaws: blue colouring of forepaws 10 minutes after challenge; for LAD trachea: blue colouring of trachea 30 minutes after challenge; for LAD urinary bladder: blue colouring of urinary bladder 30 minutes after challenge
Source text: as §1
Antagonism of substance P induced plasma extravasation in guinea-pigs
Plasma extravasation was induced by injection of substance P (2 mg/kg) in the femoral artery of female guinea-pigs. Evans Blue dye (30 mg/kg) was injected simultaneously. The test compound or solvent was administered 1 hour prior to substance P injection. 10 minutes after challenge, the aminals were checked for blue colouring (a direct measure for plasma extravasation) of the nose, the forepaws, and the conjectiva. 30 minutes after challenge, the animals were sacrificed by CO2 gas inhalation and checked for blue colouring of the trachea and the urinary bladder. […]

Row | SMILES | IC50 [1] [nM] | LAD nose [2] [mg/kg] | LAD conjunctiva [2] [mg/kg] | LAD forepaws [2] [mg/kg] | LAD trachea [2] [mg/kg] | LAD urinary bladder [2] [mg/kg]
1 | Cc1cccc(C)c1NC(=O)CN1CCN(C2CCN(C(=O)c3cc(C(F)(F)F)cc(C(F)(F)F)c3)C(Cc3ccccc3)C2)CC1 (single isomer, unassigned) [Compound 124] | 0.06 | – | – | – | – | –
2 | Cc1ncc(Cn2c(N3CCN(C4CCN(C(=O)c5cc(C(F)(F)F)cc(C(F)(F)F)c5)C(Cc5ccccc5)C4)CC3)nc3ccccc32)o1 (stereo not drawn) [Compound 23] | – | 10.0 | 40.0 | 10.0 | >40 | >40
3 | O=C(c1cc(C(F)(F)F)cc(C(F)(F)F)c1)N1CCC(N2CCN(C(c3ccc(F)cc3)c3ccc(F)cc3)CC2)CC1Cc1ccccc1 (stereo not drawn) [Compound 35] | 17 | – | – | – | – | –
4 | O=C(c1cc(C(F)(F)F)cc(C(F)(F)F)c1)N1CCC(N2CCN(c3cccc(C(F)(F)F)c3)CC2)CC1Cc1ccccc1 (racemic) [Compound 120] | 0.82 | – | – | – | – | –
5 | O=C(c1cc(C(F)(F)F)cc(C(F)(F)F)c1)N1CCC(N2CCN(c3nc4ccccc4[nH]3)CC2)CC1Cc1ccccc1 (racemic) [Compound 40] | – | 10.0 | 10.0 | 10.0 | >40 | >40
6 | O=C(CN1CCN(C2CCN(C(=O)c3cc(C(F)(F)F)cc(C(F)(F)F)c3)C(Cc3ccccc3)C2)CC1)Nc1nccn1Cc1ccccc1 (racemic) [Compound 97] | 1.58 | – | – | – | – | –
7 | O=C(O)C=CC(=O)O.O=C(O)C=CC(=O)O.O=C(c1cc(C(F)(F)F)cc(C(F)(F)F)c1)N1CCC(N2CCN(CCc3ccccc3)CC2)CC1Cc1ccccc1 (racemic) [Compound 90] | – | 10.0 | 10.0 | 10.0 | 10.0 | >40
8 | O=C(CN1CCN(C2CCN(C(=O)c3cc(C(F)(F)F)cc(C(F)(F)F)c3)C(Cc3ccccc3)C2)CC1)Nc1ccccc1 (stereo not drawn) [Compound 37] | 9.6 | – | – | – | – | –
9 | O=C(c1cc(C(F)(F)F)cc(C(F)(F)F)c1)N1CCC(N2CCN(C(c3ccccc3)c3ccccc3)CC2)CC1Cc1ccccc1 (stereo not drawn) [Compound 55] | 2.8 | – | – | – | – | –
10 | CN(CC(CCN1CCN(C2CCN(C(=O)c3cc(C(F)(F)F)cc(C(F)(F)F)c3)C(Cc3ccccc3)C2)CC1)c1ccc(Cl)c(Cl)c1)C(=O)c1ccccc1 (racemic) [Compound 92] | 0.78 | – | – | – | – | –
11 | Cc1cc(C)cc(C(=O)N2CCC(N3CCN(CC(=O)Nc4c(C)cccc4C)CC3)CC2Cc2ccccc2)c1 (stereo not drawn) [Compound 5] | 4.61 | – | – | – | – | –
12 | O=C(CN1CCN(C2CCN(C(=O)c3cc(C(F)(F)F)cc(C(F)(F)F)c3)C(Cc3ccccc3)C2)CC1)N1Cc2ccccc2C1 (racemic) [Compound 121] | 2.77 | – | – | – | – | –
13 | Cc1cccc(C)c1NC(=O)C(c1ccccc1)N1CCN(C2CCN(C(=O)c3cc(C(F)(F)F)cc(C(F)(F)F)c3)C(Cc3ccccc3)C2)CC1 (racemic) [Compound 102] | 1.85 | – | – | – | – | –
14 | O=C(c1cc(C(F)(F)F)cc(C(F)(F)F)c1)N1CCC(N2CCN(CC=Cc3ccccc3)CC2)CC1Cc1ccccc1 (stereo not drawn) [Compound 28] | 13.3 | – | – | – | – | –
15 | Cc1cccc(C)c1NC(=O)CCN1CCN(C2CCN(C(=O)c3cc(C(F)(F)F)cc(C(F)(F)F)c3)C(Cc3ccccc3)C2)CC1.O=C(O)C=CC(=O)O.O=C(O)C=CC(=O)O (racemic) [Compound 103] | – | 2.50 | 2.50 | 2.50 | 10.0 | 2.50
16 | Cc1cccc2c1N(C(=O)CN1CCN(C3CCN(C(=O)c4cc(C(F)(F)F)cc(C(F)(F)F)c4)C(Cc4ccccc4)C3)CC1)CC2 (racemic) [Compound 104] | 0.3 | – | – | – | – | –
17 | O=C(c1cc(C(F)(F)F)cc(C(F)(F)F)c1)N1CCC(N2CCN(CC=Cc3ccccc3)CC2)CC1Cc1ccccc1 (stereo not drawn) [Compound 29] | 0.45 | – | – | – | – | –
18 | COc1ccccc1NC(=O)CN1CCN(C2CCN(C(=O)c3cc(C(F)(F)F)cc(C(F)(F)F)c3)C(Cc3ccccc3)C2)CC1 (stereo not drawn) [Compound 51] | 1.35 | – | – | – | – | –
19 | O=C(c1cc(C(F)(F)F)cc(C(F)(F)F)c1)N1CCC(N2CCN(C(c3ccc(F)cc3)c3ccc(F)cc3)CC2)CC1Cc1ccccc1 (stereo not drawn) [Compound 36] | 2.31 | – | – | – | – | –
20 | Cc1cccc(C)c1NC(=O)CN1CCN(C2CCN(C(=O)c3cc(C(F)(F)F)cc(C(F)(F)F)c3)C(Cc3ccccc3)C2)CC1 (racemic) [Compound 58] | 0.24 | – | – | – | – | –
21 | O=C(c1cc(C(F)(F)F)cc(C(F)(F)F)c1)N1CCC(N2CCN(CCc3ccccc3)CC2)CC1Cc1ccccc1 (stereo not drawn) [Compound 44] | 8.34 | – | – | – | – | –
22 | CCOCCn1c(NC(=O)CN2CCN(C3CCN(C(=O)c4cc(C(F)(F)F)cc(C(F)(F)F)c4)C(Cc4ccccc4)C3)CC2)nc2ccccc21 (racemic) [Compound 69] | 1.57 | – | – | – | – | –
23 | CC(=O)NCC(c1ccccc1)N1CCN(C2CCN(C(=O)c3cc(C(F)(F)F)cc(C(F)(F)F)c3)C(Cc3ccccc3)C2)CC1 (racemic) [Compound 82] | – | 2.50 | 2.50 | 2.50 | 10.0 | >40
24 | O=C(c1ccco1)N1CCN(C2CCN(C(=O)c3cc(C(F)(F)F)cc(C(F)(F)F)c3)C(Cc3ccccc3)C2)CC1 (stereo not drawn) [Compound 21] | – | 10.0 | 10.0 | 10.0 | >40 | 10.0
25 | CCn1nnn(CCN2CCN(C3CCN(C(=O)c4cc(C(F)(F)F)cc(C(F)(F)F)c4)C(Cc4ccccc4)C3)CC2)c1=O.O=C(O)C=CC(=O)O.O=C(O)C=CC(=O)O (racemic) [Compound 96] | – | 10.0 | 10.0 | 10.0 | >40 | >40
26 | NC(=O)c1cc(Cl)c(NC(=O)CN2CCN([C@@H]3CCN(C(=O)c4cc(C(F)(F)F)cc(C(F)(F)F)c4)[C@@H](Cc4ccccc4)C3)CC2)c(Cl)c1 (racemic) [Compound 74] | – | 10.0 | 10.0 | 10.0 | >40 | >40
27 | Cc1cc(C)cc(C(=O)N2CCC(N3CCN(C(c4ccccc4)c4ccccc4)CC3)CC2Cc2ccccc2)c1 (racemic) [Compound 12] | – | >40.0 | >40.0 | >40.0 | >40 | 40.0
28 | Cc1cc(C)cc(C(=O)N2CCC(N3CCN(CC=Cc4ccccc4)CC3)CC2Cc2ccccc2)c1 (stereo not drawn) [Compound 8] | – | 10.0 | 10.0 | 10.0 | >40 | >40
29 | Cc1cc(C)cc(NC(=O)CN2CCN(C3CCN(C(=O)c4cc(C(F)(F)F)cc(C(F)(F)F)c4)C(Cc4ccccc4)C3)CC2)c1 (racemic) [Compound 47] | – | 40.0 | 40.0 | 40.0 | >40 | >40
30 | CC(=O)NCC(c1ccccc1)N1CCN(C2CCN(C(=O)c3cc(C(F)(F)F)cc(C(F)(F)F)c3)C(Cc3ccccc3)C2)CC1 (racemic) [Compound 83] | – | 0.63 | 2.50 | 0.63 | >40 | 0.63
